Consider five molecules from patent US10717711B2, “Amino quinazolines as kinase inhibitors” (GlaxoSmithKline Intellectual Property Development Limited, priority 2011, dated 2020).

Values joined by “and” are separate entries in the source; they are usually repeats but may differ in a detail not shown here. Identical values can stand only once.

The target of this assay is T1, RIPK2 (full length FLAG His tagged RIPK2; RIP2 kinase) (Homo sapiens, UniProt O43353).
T1 construct: Full length FLAG His tagged RIPK2 was purified from a Baculovirus expression system; FLAG (N); 6His (N); made in house; host or cells: Spodoptera frugiperda (Sf9) insect cells, baculovirus
T1 sequence (O43353 whole entry): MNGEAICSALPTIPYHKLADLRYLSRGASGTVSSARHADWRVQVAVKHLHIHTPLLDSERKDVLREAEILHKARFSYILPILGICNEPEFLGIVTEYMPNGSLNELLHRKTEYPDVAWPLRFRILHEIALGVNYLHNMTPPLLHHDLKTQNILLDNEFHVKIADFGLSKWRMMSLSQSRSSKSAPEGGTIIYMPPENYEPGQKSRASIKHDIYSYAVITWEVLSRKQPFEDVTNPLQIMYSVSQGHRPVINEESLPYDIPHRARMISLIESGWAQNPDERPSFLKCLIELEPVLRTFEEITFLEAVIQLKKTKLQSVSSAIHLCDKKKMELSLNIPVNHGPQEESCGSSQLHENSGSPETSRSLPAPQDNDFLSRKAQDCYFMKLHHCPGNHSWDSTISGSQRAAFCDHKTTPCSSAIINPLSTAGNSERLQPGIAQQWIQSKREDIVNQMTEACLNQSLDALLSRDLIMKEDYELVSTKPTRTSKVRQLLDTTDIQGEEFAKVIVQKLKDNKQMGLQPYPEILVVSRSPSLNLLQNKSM
As to the kind of experiment: Fluorescent polarization based binding assay at the ATP binding pocket of RIPK2. The note with it: competition with fluorescently labeled ATP competitive ligand (5 nM); mean of a minimum of 2 experiments; approximate values; read-out: mean pIC50 (RIP2 kinase inhibition) (converted). An excerpt: A fluorescent polarization based binding assay was developed to quantitate interaction of novel test compounds at the ATP binding pocket of RIPK2, by competition with a fluorescently labeled ATP competitive ligand. Full length FLAG His tagged RIPK2 was purified from a Baculovirus expression system and was used at a final assay concentration of twice the KDapparent. A fluorescent labeled ligand (5-({[2-({[3-({4-[(5-hydroxy-2-methylphenyl)amino]-2-pyrimidinyl}amino)phenyl]carbonyl}amino)ethyl] amino}carbonyl)-2-(6-hydroxy-3-oxo-3H-xanthen-9-yl)benzoic acid, prepared as described in WO2011/120025) was used at a final assay concentration of 5 nM. Both the enzyme and ligand were prepared in solutions in 50 mM HEPES pH7.5, 150 mM NaCl, 10 mM MgCl2, 1 mM DTT, and 1 mM CHAPS. Test compounds were prepared in 100% DMSO and 100 nL was dispensed to individual wells of a multiwell plate. Next, 5 ul RIPK2 was added to the test compounds at twice the final assay concentration, and incubated at rt for 10 min. Following the incubation, 5 ul of the fluorescent labeled ligand solution, was added to each reaction, at twice the final assay concentration, and incubated at rt for at least 10 min. Finally, samples were read on an instrument capable of measuring fluorescent polarization. Test compound inhibition was expressed as percent (%) inhibition of internal assay controls.
For concentration/dose response experiments, normalized data were fit and pIC50S determined using conventional techniques. The pIC50S are averaged to determine a mean value, for a minimum of 2 experiments.
Full-length human RIPK2 (receptor-interacting serine-threonine kinase 2) cDNA was purchased from Invitrogen (Carlsbad, Calif., USA, Clone ID:IOH6368, RIPK2-pENTR 221). Gateway® LR cloning was used to site-specifically recombine RIPK2 downstream to an N-terminal FLAG-6His contained within the destination vector pDEST8-FLAG-His6 according to the protocol described by Invitrogen. Transfection into Spodoptera frugiperda (Sf9) insect cells was performed using Cellfectin® (Invitrogen), according to the manufacturer's protocol.
Sf9 cells were grown in Excell 420 (SAFC Biosciences, Lenexa, Kans., US; Andover, Hampshire UK) growth media at 27° C., 80 rpm in shake flask until of a sufficient volume to inoculate a bioreactor. […] The insect cells were infected with Baculovirus at a multiplicity of infection (MOI) of 12.7. The cultivation was continued for a 43 hour expression phase. The infected cells were removed from the growth media by centrifugation at 2500 g using a Viafuge (Carr) continuous centrifuge at a flow rate of 80 litres/hour. The cell pellet was immediately frozen and subsequently supplied for purification.
Purification Procedure I: 9.83×10^10 Insect cells were re-suspended in 1.4 L lysis buffer (50 mM Tris (pH 8.0), 150 mM NaCl, 0.5 mM NaF, 0.1% Triton X-100, 1 mL/litre Protease Inhibitor Cocktail Set III (available from EMD Group; CalBiochem/Merck Biosciences, Gibbstown, N.J., US; Damstadt, Germany) and processed by dounce homogenization on ice. The suspension was then clarified by centrifugation at 47,900 g for 2 h, at 4° C. The lysate was decanted from the insoluble pellet and loaded at a linear flow rate of 16 cm/h onto a 55 mL FLAG-M2 affinity column (2.6×10.4 cm) that had been pre-equilibrated with 10 column volumes buffer A (50 mM Tris (pH 8.0), 150 mM NaCl, 0.5 mM NaF, 1 mL/litre Protease Inhibitor Cocktail Set III). […]
For the molecule `CC(C)(C)S(=O)(=O)c1ccc2ncnc(Nc3ccc4scnc4c3)c2c1` [Example 4, N-1,3-benzothiazol-5-yl-6-[(1,1-dimethylethyl)sulfonyl]-4-quinazolinamine], the IC50 was ~31.6 nM and 1 to 100 nM.
As for `CC(C)S(=O)(=O)c1ccc2ncnc(Nc3ccc4scnc4c3)c2c1` [Example 6, N-1,3-benzothiazol-5-yl-6-[(1-methylethyl)sulfonyl]-4-quinazolinamine], the figure is 1 to 100 nM.
Regarding `COc1cc2ncnc(Nc3ccc4scnc4c3)c2cc1S(=O)(=O)C(C)(C)C` [Example 16, N-(6-(tert-butylsulfonyl)-7-methoxyquinazolin-4-yl)benzo[d]thiazol-5-amine], the IC50 is ~3.16 nM and 1 to 100 nM.
Regarding `CC(C)(C)S(=O)(=O)c1cc2c(Nc3ccc4scnc4c3)ncnc2cc1OCCO` [Example 21, 2-((4-(benzo[d]thiazol-5-ylamino)-6-(tert-butylsulfonyl)quinazolin-7-yl)oxy)ethanol], the IC50 was 1 to 100 nM.
Under `CC(C)(C)S(=O)(=O)c1cc2c(Nc3ccc4scnc4c3)ncnc2cc1OCC(F)(F)F` [Example 23, N-(6-(tert-butylsulfonyl)-7-(2,2,2-trifluoroethoxy)quinazolin-4-yl)benzo[d]thiazol-5-amine] stands 1 to 100 nM.
